Read-outs that look alike come from different tables or passages of the source.
Key:
[1] = test system: Hyperlipidemic Hamster; assay: In Vivo Assay of Hypolipidemic Agents Using the Hyperlipidemic Hamster; conditions: Mesocricetus auratus, po, 168 h, 7 days, percent change versus control, negative = lowering; for change in vivo at 50 mg/kg: 50 mg/kg once daily oral; for change in vivo at 85 mg/kg: 85 mg/kg once daily oral; for change in vivo at 25 mg/kg: 25 mg/kg once daily oral
Outline: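 Hamsters, six per group, were fed chow with 0.5% cholesterol for seven days and given compound once daily by oral gavage in corn oil; controls received corn oil alone. Plasma (EDTA) and liver lipids were measured at sacrifice. Values are percent change versus control, so negative means lowering.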

[2] = target: T1, ACAT (Rattus norvegicus, UniProt Q7TQM4); assay: ACAT Assay (in vitro); type: biochemical; conditions: for inhibition at 10 µM: Conc. 10 µM, negative = apparent stimulation, read-out: ACAT (in vitro) % Inhib.
T1 construct: Rat liver microsomes are used as the source of ACAT; from tissue; host or cells: rat liver microsomes
T1 sequence (Q7TQM4 1-524): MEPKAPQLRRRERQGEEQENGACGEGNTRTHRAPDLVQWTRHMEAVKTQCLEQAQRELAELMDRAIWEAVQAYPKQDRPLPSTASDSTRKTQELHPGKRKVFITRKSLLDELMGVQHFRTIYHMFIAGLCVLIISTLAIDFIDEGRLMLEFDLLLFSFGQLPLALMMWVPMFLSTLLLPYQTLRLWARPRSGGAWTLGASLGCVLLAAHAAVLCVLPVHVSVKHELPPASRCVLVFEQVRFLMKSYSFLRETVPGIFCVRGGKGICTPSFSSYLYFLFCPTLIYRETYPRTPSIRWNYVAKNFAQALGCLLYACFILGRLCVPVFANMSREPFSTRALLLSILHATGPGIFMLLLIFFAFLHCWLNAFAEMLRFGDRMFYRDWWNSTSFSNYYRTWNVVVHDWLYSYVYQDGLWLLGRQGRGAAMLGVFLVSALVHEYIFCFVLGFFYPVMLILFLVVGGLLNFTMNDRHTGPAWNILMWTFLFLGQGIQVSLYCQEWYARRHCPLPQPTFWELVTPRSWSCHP
Experimental: This assay measures the activity of ACAT by measuring the ACAT-mediated transfer of tritiated oleic acid from acyl-CoA to cholesterol to give labelled cholesteryl oleate. Rat liver microsomes are used as the source of ACAT. Assays are performed in round bottom microtiterplates using a total incubation volume of 50 μL. […] The microtiterplate is then floated on the surface of a 37° C. water bath for fifteen minutes. Incubations are started by the addition of 3 μL ^3 H-acyl CoA (1 μCi/well, final concentration of 10 μM acyl CoA). The plate is then returned to the water bath for 15 minutes. The incubations are then terminated by application of 15 μL from each incubation to individual lanes on a thin layer plate (Silica Gel GF 20×20 cm). Standards are applied to several lanes so that the cholesteryl ester band can be identified. After drying, the plates am eluted with 90:10:1 petroleum ether:diethyl ether:acetic acid. The standards am visualized via iodine vapor, and the regions corresponding to cholesteryl ester are scraped into 7 mL scintillation vials. 4 mL of scintillant are added to each vial, and the radioactivity quantified. Background count is determined by the boiled controls. Full activity is determined by activity in the presence of vehicle. The percent inhibition is calculated by subtracting the background from both control and test samples, and the test value is calculated as a percentage of the control.
For the in vitro ACAT data, negative percent inhibition denotes apparent stimulation,while positive numbers denote inhibition.

[3] = read-out: % Reduction (in vivo) Cholest. Esters
[4] = read-out: % Reduction (in vivo) Serum Cholest.
[5] = rat liver microsomes, read-out: ACAT (in vitro) IC50

| Structure (SMILES) | change in vivo at 50 mg/kg [1, 3] [%] | change in vivo at 50 mg/kg [1, 4] [%] | inhibition at 10 µM [2] [%] | IC50 [2, 5] [µM] | change in vivo at 85 mg/kg [1, 3] [%] | change in vivo at 85 mg/kg [1, 4] [%] | IC50 [2] [µM] | change in vivo at 25 mg/kg [1, 3] [%] | change in vivo at 25 mg/kg [1, 4] [%] |
| --- | --- | --- | --- | --- | --- | --- | --- | --- | --- |
| CCCCCCCCCC[C@]1(C)C(=O)N(c2ccc(OC)cc2)[C@H]1c1ccccc1 (relative stereo) [Example 3Y] | 0 | 0 | -33 | – | – | – | – | – | – |
| COc1ccc(N2C(=O)[C@H](CCCc3ccccc3)[C@@H]2c2ccc(OCc3ccccc3)cc2)cc1 (relative stereo) [Example 1BN] | 0 | -16 | – | 7 | – | – | – | – | – |
| CC[C@@]1(CCCc2ccccc2)C(=O)N(c2ccc(OC)cc2)[C@@H]1/C=C/c1ccccc1 (relative stereo) [Example 3] | 0 | 0 | 56 | – | – | – | – | – | – |
| CCCCCCCCCC[C@@H]1C(=O)N(c2ccc(OC)cc2)[C@H]1c1ccccc1 (relative stereo) [Example 1T] | 0 | 0 | -11 | – | – | – | – | – | – |
| COc1ccc(N2C(=O)[C@@H](CCCc3ccccc3)[C@H]2c2ccc(CN3CCOCC3)cc2)cc1 (relative stereo) [Example 19A] | -34 | -20 | 64 | – | – | – | – | – | – |
| COc1ccc(N2C(=O)[C@@H](CCCc3ccccc3)[C@H]2c2ccc([S+](C)[O-])cc2)cc1 (relative stereo) [Example 17] | -52 | -17 | 25 | – | – | – | – | – | – |
| CC[C@@]1(CCCc2ccccc2)C(=O)N(c2c(OC)cc(OC)cc2OC)[C@H]1c1ccccc1 (relative stereo) [Example 3D] | 0 | 0 | 42 | 12 | – | – | – | – | – |
| COc1ccc([C@H]2[C@@H](CCc3ccccc3)C(=O)N2c2ccc(OC)cc2)cc1 (relative stereo) [Example 1CC] | 0 | 0 | 46 | – | – | – | – | – | – |
| COc1ccc(N2C(=O)[C@@H](CCCc3ccccc3)[C@@H]2c2cccc(OC(F)(F)F)c2)cc1 (relative stereo) [Example 1BL] | 0 | -10 | 42 | – | – | – | – | – | – |
| COc1ccc(N2C(=O)[C@@H](CCCc3ccccc3)[C@@H]2C=Cc2ccccc2)cc1 (relative stereo) [Example 1K] | 0 | 0 | -70 | – | – | – | – | – | – |
| COc1ccc([C@H]2[C@@H](CCCC3CCCCC3)C(=O)N2c2ccc(OC)cc2)cc1 (relative stereo) [Example 1CF] | -47 | -23 | 53 | – | – | – | – | – | – |
| CCOc1ccc([C@H]2[C@@H](CCCc3ccccc3)C(=O)N2c2ccc(OC)cc2)cc1 (relative stereo) [Example 1BO] | -93 | -48 | 79 | 5.4 | – | – | – | – | – |
| CC[C@@]1(CCCc2ccccc2)C(=O)N(c2ccc(OC)cc2)[C@H]1c1ccc(OC)cc1 (relative stereo) [Example 3O] | 0 | 0 | -28 | – | – | – | – | – | – |
| CC[C@]1(CCCc2ccccc2)C(=O)N(c2c(OC)cc(OC)cc2OC)[C@H]1c1ccccc1 (relative stereo) [Example 3F] | -31 | 0 | 82 | – | – | – | – | – | – |
| COc1ccc(N2C(=O)[C@H](CCCc3ccccc3)[C@H]2c2ccc(C)cc2)cc1 (relative stereo) [Example 5R] | -21 | -20 | 18 | – | – | – | – | – | – |
| COc1ccc([C@H]2[C@@H](CCOc3ccccc3)C(=O)N2c2ccc(OC)cc2)cc1 (relative stereo) [Example 1CD] | -23 | 0 | 84 | 7 | – | – | – | – | – |

| Structure (SMILES) | change in vivo at 50 mg/kg [1, 3] [%] | change in vivo at 50 mg/kg [1, 4] [%] | inhibition at 10 µM [2] [%] | IC50 [2, 5] [µM] | change in vivo at 85 mg/kg [1, 3] [%] | change in vivo at 85 mg/kg [1, 4] [%] | IC50 [2] [µM] | change in vivo at 25 mg/kg [1, 3] [%] | change in vivo at 25 mg/kg [1, 4] [%] |
| --- | --- | --- | --- | --- | --- | --- | --- | --- | --- |
| COc1ccc(N2C(=O)[C@H](CCCc3ccccc3)[C@H]2c2ccc(OC)c(OC)c2)cc1 (relative stereo) [Example 5P] | -33 | -11 | 53 | – | – | – | – | – | – |
| CCCCCCCCCC[C@H]1C(=O)N(c2ccc(OC)cc2)[C@H]1c1ccccc1 (relative stereo) [Example 1S] | – | – | -19 | – | -32 | 0 | – | – | – |
| CCCCCCCCCC[C@@]1(CC)C(=O)N(c2c(OC)cc(OC)cc2OC)[C@@H]1c1ccccc1 (relative stereo) [Example 3W] | 0 | 0 | 56 | – | – | – | – | – | – |
| COc1ccc(N2C(=O)[C@H](CCCc3ccccc3)[C@@H]2c2ccc(CO[Si](C)(C)C(C)(C)C)cc2)cc1 (relative stereo) [Example 1AT] | -28 | 0 | 70 | – | – | – | 5 | – | – |
| COc1ccc([C@@H]2[C@@H](CCCCc3ccccc3)C(=O)N2c2ccc(OC)cc2)cc1 (relative stereo) [Example 5AB] | -72 | -28 | 30 | – | – | – | – | – | – |
| COc1ccc([C@@H]2[C@H](OCCc3ccccc3)C(=O)N2c2ccc(OC)cc2)cc1 (relative stereo) [Example 7AE] | -10 | -17 | -95 | – | – | – | – | – | – |
| COc1ccc(N2C(=O)[C@H](CCCc3ccccc3)[C@@H]2c2cccs2)cc1 (relative stereo) [Example 1BI] | -45 | -17 | 59 | – | – | – | – | – | – |
| CC[C@@]1(CCCCc2ccccc2)C(=O)N(c2ccc(OC)cc2)[C@H]1c1ccccc1 (relative stereo) [Example 3L] | – | – | 53 | – | – | – | – | 0 | 0 |
| COc1ccc(C2N(c3ccc(OC)cc3)C(=O)C2(c2ccccc2)c2ccccc2)cc1 (stereo not drawn) [Example 7AC] | 0 | 0 | 31 | – | – | – | – | – | – |
| COc1ccc(N2C(=O)[C@@H](CCc3ccccc3)[C@H]2c2ccccc2)cc1 (relative stereo) [Example 1D] | 0 | 0 | 39 | – | – | – | – | – | – |
| COc1ccc(N2C(=O)[C@@H](CCCc3ccccc3)[C@@H]2c2ccsc2)cc1 (relative stereo) [Example 1BP] | 0 | -9 | 58 | – | – | – | – | – | – |
| COc1ccc(N2C(=O)[C@@H](CCCc3ccccc3)[C@H]2c2ccc(CO)cc2)cc1 (relative stereo) [Example 15A] | 0 | 0 | 2 | – | – | – | – | – | – |
| CC[C@@]1(CCCc2ccccc2)C(=O)N(c2ccc(OC)cc2)[C@H]1CCc1ccccc1 (relative stereo) [Example 6] | 0 | 14 | 59 | 5 | – | – | – | – | – |
| CC[C@@]1(CCCc2ccccc2)C(=O)N(c2ccc(OC)cc2)[C@H]1C=Cc1ccccc1 (relative stereo) [Example 3G] | 0 | 9 | 74 | 5 | – | – | – | – | – |
| COc1ccc(N2C(=O)[C@@H](CCCc3ccccc3)[C@@H]2c2ccc([N+](=O)[O-])cc2)cc1 (relative stereo) [Example 1G] | 0 | -11 | 21 | – | – | – | – | – | – |

From patent publication US5688787A, “Substituted β-lactam compounds useful as hypochlesterolemic agents and processes for the preparation thereof” (priority 1996, dated 1997)
